Like-named read-outs stand apart in the source and are kept apart here.
How the values were obtained:
L. infantum amastigotes [1] = assay: Intracellular amastigote assay (fluorometric test); assay type: cell-based; conditions: Leishmania infantum, read-out: L. infantum IC50 ± SD
[2] = target: T1, GABAA receptor subtype (α1β2γ2S) (Homo sapiens, UniProt P14867+P18507+P47870); assay: Two-microelectrode voltage-clamp in Xenopus laevis oocytes; conditions: for activation at 10 µM: read-out: IGABA Potentiation of 10 µM (%); for activation at 100 µM: read-out: IGABA Potentiation of 100 µM (%)
T1 sequence (P14867 28-456): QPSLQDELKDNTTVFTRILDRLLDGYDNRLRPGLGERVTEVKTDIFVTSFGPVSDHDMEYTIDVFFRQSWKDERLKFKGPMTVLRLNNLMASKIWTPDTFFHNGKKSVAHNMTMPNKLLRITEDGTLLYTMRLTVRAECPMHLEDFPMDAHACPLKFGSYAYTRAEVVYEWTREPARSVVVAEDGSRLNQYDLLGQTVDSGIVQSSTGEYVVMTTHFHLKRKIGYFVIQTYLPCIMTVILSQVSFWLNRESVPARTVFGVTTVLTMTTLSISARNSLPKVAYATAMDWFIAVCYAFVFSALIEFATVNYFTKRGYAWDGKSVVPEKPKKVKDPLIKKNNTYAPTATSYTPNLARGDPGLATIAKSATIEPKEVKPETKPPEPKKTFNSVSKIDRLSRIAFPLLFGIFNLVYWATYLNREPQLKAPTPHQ
T1 sequence (P47870 26-512): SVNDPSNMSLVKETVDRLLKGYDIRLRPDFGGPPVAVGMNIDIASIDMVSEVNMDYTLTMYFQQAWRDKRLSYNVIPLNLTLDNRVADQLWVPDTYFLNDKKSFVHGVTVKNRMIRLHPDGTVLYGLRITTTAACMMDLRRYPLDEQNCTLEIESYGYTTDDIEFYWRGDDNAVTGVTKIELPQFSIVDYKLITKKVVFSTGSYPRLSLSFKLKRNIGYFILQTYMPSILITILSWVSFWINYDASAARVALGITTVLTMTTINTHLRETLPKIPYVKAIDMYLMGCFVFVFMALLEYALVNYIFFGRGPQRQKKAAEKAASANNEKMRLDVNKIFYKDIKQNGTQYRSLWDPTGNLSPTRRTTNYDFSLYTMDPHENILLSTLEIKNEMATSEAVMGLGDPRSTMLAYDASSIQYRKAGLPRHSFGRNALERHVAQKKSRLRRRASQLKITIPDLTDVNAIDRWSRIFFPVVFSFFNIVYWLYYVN
T1 sequence (P18507 40-467 isoform P18507-1 limits assumed): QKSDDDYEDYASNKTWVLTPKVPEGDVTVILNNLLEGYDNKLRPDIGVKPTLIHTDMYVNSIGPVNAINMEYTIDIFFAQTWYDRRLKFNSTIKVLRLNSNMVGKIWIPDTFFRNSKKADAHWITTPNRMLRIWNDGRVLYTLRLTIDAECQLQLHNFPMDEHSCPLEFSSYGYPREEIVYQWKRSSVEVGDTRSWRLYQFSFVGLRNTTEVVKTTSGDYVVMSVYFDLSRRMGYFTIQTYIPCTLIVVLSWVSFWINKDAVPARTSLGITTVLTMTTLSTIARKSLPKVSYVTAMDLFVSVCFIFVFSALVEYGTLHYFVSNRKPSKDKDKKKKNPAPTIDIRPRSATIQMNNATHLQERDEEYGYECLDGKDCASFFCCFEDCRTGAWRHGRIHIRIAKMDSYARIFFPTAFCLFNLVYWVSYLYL
Procedure: All molecules were tested at concentrations of 10, 100 μM and compared with dehydroabietic acid (DHA) (3) as a reference [16].

T-47D (Breast) [3] = assay: Antiproliferative SRB assay; assay type: cell-based; conditions: Homo sapiens, T47D, mean ± SD of at least two experiments
Procedure: (§1) Cells, cultures and the activity test of abietane analogs followed reported methods. The SRB assay was performed as previously described, and the antiproliferative activity was given as GI50 values, which were calculated according to NCI formulas.

HeLa (Cervix) [4] = assay: Antiproliferative SRB assay; assay type: cell-based; conditions: Homo sapiens, mean ± SD of at least two experiments
Procedure: as §1

HBL-100 (Breast) [5] = assay: Antiproliferative SRB assay; assay type: cell-based; conditions: Homo sapiens, mean ± SD of at least two experiments
Procedure: as §1

SW1573 (Lung) [6] = assay: Antiproliferative SRB assay; assay type: cell-based, human; conditions: Homo sapiens, SW1573, mean ± SD of at least two experiments
Procedure: as §1

WiDr (Colon) [7] = assay: Antiproliferative SRB assay; assay type: cell-based, human; conditions: Homo sapiens, WiDr, mean ± SD of at least two experiments
Procedure: as §1

A549 (Lung) [8] = assay: Antiproliferative SRB assay; assay type: cell-based, human; conditions: Homo sapiens, A549, mean ± SD of at least two experiments
Procedure: as §1

HEK293 = assay: Cytotoxicity on mammalian cell lines; assay type: cell-based; conditions: Homo sapiens, HEK293; read-out: HEK293 EC50
Procedure: (§2) Assays were performed by using previously described DNA stain-based assay and methods, including cytotoxicity assays.

BJ = assay: Cytotoxicity on mammalian cell lines; assay type: cell-based; conditions: Homo sapiens, read-out: BJ EC50
Procedure: as §2

RAJI = assay: Cytotoxicity on mammalian cell lines; assay type: cell-based; conditions: Homo sapiens, read-out: RAJI EC50
Procedure: as §2

HepG2 = assay: Cytotoxicity on mammalian cell lines; assay type: cell-based; conditions: Homo sapiens, HepG2; read-out: HepG2 EC50
Procedure: as §2

[9] = test system: L. guyanensis promastigotes; assay: Antileishmanial in vitro promastigote assay; conditions: Leishmania guyanensis, read-out: L. guyanensis IC50 ± SD
Procedure: (§3) The compounds were additionally studied in a panel of mammalian cell lines to determine cytotoxicity.
(§4) The parasites, culture procedure and the activity of functionalized abietane analogs on Leishmania promastigotes were performed according to the method previously reported by us [28], while the intracellular amastigote assay was performed on L. amazonensis and L. infantum according to the fluorometric test [29]. The J774 cell culture and the cytotoxicity assay was carried out according to our previously described method [30].

[10] = test system: L. amazonensis amastigotes; assay: Intracellular amastigote assay (fluorometric test); assay type: cell-based; conditions: Leishmania amazonensis, read-out: L. amazonensis IC50 ± SD
[11] = test system: L. infantum promastigotes; assay: Antileishmanial in vitro promastigote assay; conditions: Leishmania infantum, read-out: L. infantum IC50 ± SD
Procedure: as §3, §4

[12] = test system: L. donovani promastigotes; assay: Antileishmanial in vitro promastigote assay; conditions: Leishmania donovani, read-out: L. donovani IC50 ± SD
Procedure: as §3, §4

in vitro = conditions: mouse, Macrophages J774 CC50
Procedure: as §3, §4

P. falciparum 3D7 strain = assay: Antiplasmodial DNA stain-based growth assay; assay type: cell-based; conditions: Plasmodium falciparum, 3D7; chloroquine-sensitive strain; 72 h incubation; read-out: P. falciparum 3D7 EC50
Procedure: as §2

P. falciparum K1 strain = assay: Antiplasmodial DNA stain-based growth assay; assay type: cell-based; conditions: Plasmodium falciparum, K1; chloroquine-resistant strain; 72 h incubation; read-out: P. falciparum K1 EC50
Procedure: as §2

[13] = test system: L. amazonensis promastigotes; assay: Antileishmanial in vitro promastigote assay; conditions: Leishmania amazonensis, read-out: L. amazonensis IC50 ± SD
Procedure: as §3, §4

[14] = Cytotoxicity assay on J774 macrophages; conditions: mouse, Macrophages J774 CC50, 50% reduction of cell viability
Procedure: as §3, §4

HBL-100 (Breast) [15] = conditions: C18-congeners; cited from earlier work
[16] = test system: L. guyanensis promastigotes; set-up: method as in PMID 30840453; conditions: C18-congeners, read-out: L. guyanensis IC50 ± SD; cited from earlier work
[17] = test system: L. donovani promastigotes; conditions: C18-congeners, read-out: L. donovani IC50 ± SD; cited from earlier work
L. infantum amastigotes [18] = test system: L. infantum amastigotes; set-up: method as in PMID 30840453; conditions: C18-congener, read-out: L. infantum IC50 ± SD; cited from earlier work
A549 (Lung) [19] = conditions: C18-congeners; cited from earlier work
HeLa (Cervix) [20] = conditions: C18-congeners; cited from earlier work
[21] = test system: L. infantum promastigotes; set-up: method as in PMID 30840453; conditions: C18-congeners, read-out: L. infantum IC50 ± SD; cited from earlier work
Macrophages J774 [22] = conditions: read-out: Macrophages J774 CC50; C18-congeners; cited from earlier work
T-47D (Breast) [23] = conditions: C18-congeners; cited from earlier work
[24] = test system: L. amazonensis promastigotes; set-up: method as in PMID 30840453; conditions: C18-congeners, read-out: L. amazonensis IC50 ± SD; cited from earlier work
[25] = target: T1, GABAA receptor subtype (α1β2γ2S); set-up: expressed in transfected cells; host or cells: Xenopus laevis oocytes; conditions: C18-congeners, cited from earlier work
SW1573 (Lung) [26] = conditions: C18-congeners; cited from earlier work
WiDr (Colon) [27] = conditions: C18-congeners; cited from earlier work
[28] = test system: L. amazonensis amastigotes; set-up: method as in PMID 30840453; conditions: C18-congener, read-out: L. amazonensis IC50 ± SD; cited from earlier work
[29] = test system: Leishmania promastigotes (L. donovani, L. infantum, L. guyanensis, L. amazonensis); assay: Antipromastigote activity over the tested Leishmania spp.; conditions: read-out: antipromastigote activity IC50 values (range over species)
Procedure: The parasites, culture procedure and the activity of functionalized abietane analogs on Leishmania promastigotes were performed according to the method previously reported by us [28], while the intracellular amastigote assay was performed on L. amazonensis and L. infantum according to the fluorometric test [29].

Macrophages J774 [30] = conditions: mouse
Procedure: as §3, §4

A549 cell line = test system: A549 cell line; set-up: method as in doi:10.1016/j.phytol.2013.04.003; conditions: MTT method; cited from earlier work
[31] = test system: human solid tumor cell lines HBL-100, A549, HeLa, T-47D, SW1573, WiDr; assay: Antiproliferative SRB assay, panel of six cell lines; assay type: cell-based; conditions: over the six solid tumor cell lines, read-out: GI50 (range over the cell lines)
Procedure: as §1

Compound	IC50 (L. infantum amastigotes [1])	activation at 10 µM [2]	activation at 100 µM [2]	GI50 (T-47D (Breast) [3])	GI50 (HeLa (Cervix) [4])	GI50 (HBL-100 (Breast) [5])	GI50 (SW1573 (Lung) [6])	GI50 (WiDr (Colon) [7])	GI50 (A549 (Lung) [8])	EC50 (HEK293)	EC50 (BJ)	EC50 (RAJI)	EC50 (HepG2)	IC50 [9]	IC50 [10]	IC50 [11]	IC50 [12]	EC50 (P. falciparum 3D7 strain)	EC50 (P. falciparum K1 strain)	IC50 [13]	also measured
CC(C)c1cc2c(cc1O)C1(C)CCCC(C)(C(=O)O)C1CC2=O (single isomer, unassigned; (+)) [Compound 8a, (+)-4-epi-liquiditerpenoic acid A]	20.1 ± 2 µM	-8 ± 1%	-8 ± 3%	31 ± 12 µM	12 ± 3.8 µM	39 ± 14 µM	41 ± 17 µM	33 ± 15 µM	12 ± 2.9 µM	> 25 µM	> 25 µM	> 25 µM	> 25 µM	3 ± 0.9 µM	21.4 ± 2.3 µM	100 ± 20 µM	84.4 ± 31.6 µM	> 15 µM	> 15 µM	94.5 ± 6.5 µM	CC50 (in vitro): > 200 µM
COC(=O)[C@@]1(C)CCC[C@]2(C)c3cc(C(C)=O)c(C(C)C)cc3CC[C@@H]12 [Compound 9]	22.7 ± 5.9 µM	–	–	14 ± 1 µM	15 ± 4.1 µM	14 ± 2.1 µM	25 ± 11 µM	15 ± 2.1 µM	15 ± 7 µM	> 25 µM	> 25 µM	> 25 µM	> 25 µM	18.7 ± 0.8 µM	30.3 ± 1.2 µM	20.3 ± 4.6 µM	8.9 ± 2 µM	12.8 µM	12.6 µM	14.1 ± 1.4 µM	CC50 [14]: > 200 µM
COC(=O)[C@]1(C)CCC[C@]2(C)c3cc(C(C)=O)c(C(C)C)cc3CC[C@@H]12 [Compound 9b]	–	–	–	–	–	–	–	–	–	–	–	–	–	–	–	–	–	–	–	–	GI50 (HBL-100 (Breast) [15]): 15 ± 1.2 µM; IC50 [16]: 14.2 ± 0.4 µM; IC50 [17]: 14.8 ± 0.9 µM; IC50 (L. infantum amastigotes [18]): 37.2 ± 2.4 µM; GI50 (A549 (Lung) [19]): 18 ± 2.3 µM; GI50 (HeLa (Cervix) [20]): 11 ± 1 µM; IC50 [21]: 2.5 ± 0.6 µM; CC50 (Macrophages J774 [22]): 130 ± 8.9 µM; GI50 (T-47D (Breast) [23]): 10 ± 1.5 µM; IC50 [24]: 11.6 ± 0.6 µM; IGABA Potentiation of 10 µM (%) ([25]; 10 µM): 2.7 ± 0.9%; IGABA Potentiation of 100 µM (%) ([25]; 100 µM): −2.9 ± 5.1%; GI50 (SW1573 (Lung) [26]): 11 ± 4.6 µM; GI50 (WiDr (Colon) [27]): 17 ± 2.4 µM; IC50 [28]: 31.4 ± 6.2 µM
COC(=O)[C@@]1(C)CCC[C@]2(C)c3cc(OC(C)=O)c(C(C)C)cc3CC[C@@H]12 [Compound 10]	–	–	–	4.2 ± 1.5 µM	7 ± 1.7 µM	11 ± 2.3 µM	18 ± 3.4 µM	4.5 ± 1.4 µM	6.5 ± 2.7 µM	> 25 µM	> 25 µM	> 25 µM	> 25 µM	–	–	3.6 ± 0.6 µM	3.9 ± 0.1 µM	> 15 µM	3.1 µM	7.4 ± 0.6 µM	CC50 [14]: 30.2 ± 2 µM
COC(=O)[C@@]1(C)CCC[C@]2(C)c3cc(OC(C)=O)c(C(C)C)cc3C(=O)C[C@@H]12 [Compound 11]	–	1 ± 3%	75 ± 4%	6.1 ± 1.9 µM	5.6 ± 2.9 µM	7.4 ± 0.7 µM	17 ± 7.5 µM	5.2 ± 3.1 µM	3.1 ± 0.9 µM	> 25 µM	> 25 µM	> 25 µM	> 25 µM	–	–	–	–	7.1 µM	5.7 µM	–	CC50 [14]: 45.8 ± 5.6 µM
COC(=O)[C@@]1(C)CCC[C@]2(C)c3cc(O)c(C(C)C)cc3CC[C@@H]12 [Compound 12]	–	1 ± 3%	65 ± 6%	4.2 ± 1.3 µM	5.1 ± 1.9 µM	11 ± 3 µM	12 ± 4.1 µM	3.7 ± 1.9 µM	2.3 ± 1.5 µM	> 25 µM	> 25 µM	> 25 µM	> 25 µM	–	–	–	–	4.7 µM	2.1 µM	–	CC50 [14]: 65.4 ± 7 µM
CC(C)c1cc2c(cc1O)[C@@]1(C)CCC[C@](C)(C(=O)O)[C@@H]1CC2 [Compound 13, lambertic acid]	19.2 ± 3.8 µM	3 ± 3%	71 ± 23%	41 ± 8.4 µM	29 ± 13 µM	34 ± 4.2 µM	32 ± 8.9 µM	59 ± 7.3 µM	17 ± 6.1 µM	> 25 µM	> 25 µM	> 25 µM	> 25 µM	17.8 ± 1.2 µM	8.8 ± 1.6 µM	29.1 ± 1.5 µM	12.8 ± 2.8 µM	> 15 µM	> 15 µM	51.5 ± 3.2 µM	IC50 [29]: 12.8 to 51.5 µM; CC50 (Macrophages J774 [30]): 217 ± 34 µM; fold less cytotoxic than 12-hydroxydehydroabietic acid (Macrophages J774 [30]): 2.5 fold; CC50 (in vitro): > 200 µM
CC(C)c1cc2c(cc1O)[C@@]1(C)CCC[C@](C)(CO)[C@@H]1CC2 [Compound 14, 19-hydroxyferruginol]	–	64 ± 13%	507%	12 ± 1.8 µM	3.1 ± 0.9 µM	13 ± 1.6 µM	13 ± 1.3 µM	13 ± 3.7 µM	1.8 ± 0.4 µM	> 25 µM	> 25 µM	> 25 µM	> 25 µM	–	–	–	–	> 15 µM	11.6 µM	–	IC50 (A549 cell line): 14 µM; GI50 [31]: 1.8 to 13 µM; CC50 (in vitro): 51.9 ± 5.9 µM
COC(=O)[C@@]1(C)CCC[C@]2(C)c3cc(O)c(C(C)C)cc3C(=O)C[C@@H]12 [Compound 16]	16.5 ± 4.6 µM	5 ± 4%	104 ± 26%	47 ± 25 µM	18 ± 1.7 µM	65 ± 4.9 µM	> 100 µM	6.1 ± 4.2 µM	11 ± 6.9 µM	> 25 µM	> 25 µM	> 25 µM	> 25 µM	5.6 ± 0.6 µM	16.1 ± 2 µM	10.1 ± 1.4 µM	11.8 ± 0.8 µM	4.8 µM	3.9 µM	8.5 ± 0.3 µM	CC50 (in vitro): > 200 µM
